According to PubChem BioAssay AID720632 (Broad Institute, 2013):
Calls of active or inactive are those of the source. No rule for the calls is given here.

Target: Caspase-6 (Homo sapiens) (UniProt P55212)
Experiment: human caspase-6 inhibitors, dose response, biochemical, VEID-R110 fluorescence, cherry-pick (AID 720632)
Details: caspase-6, VEID-R110 fluorogenic substrate; at 26 µM (top of the series)

Chain of Caspase-6 (Homo sapiens) (P55212 24-179 limits assumed): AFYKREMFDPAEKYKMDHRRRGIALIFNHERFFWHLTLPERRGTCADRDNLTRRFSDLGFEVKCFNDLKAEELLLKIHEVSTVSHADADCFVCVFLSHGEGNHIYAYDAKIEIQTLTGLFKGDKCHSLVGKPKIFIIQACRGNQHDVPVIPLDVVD
Chain of Caspase-6 (Homo sapiens) (P55212 194-293 limits assumed): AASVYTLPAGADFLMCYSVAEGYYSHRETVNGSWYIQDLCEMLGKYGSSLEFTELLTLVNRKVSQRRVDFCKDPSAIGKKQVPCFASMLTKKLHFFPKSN

Structure (SMILES) | activity change, negative = inhibition
CCN(C(=O)COC(=O)CNC(=O)c1ccc2ccccc2c1)C1CCS(=O)(=O)C1 (stereo unspecified) | inactive
COc1ccc(N2CCN(C(=O)CCCCCn3c(=S)[nH]c4cc5c(cc4c3=O)OCO5)CC2)cc1 | inactive
O=C1NC2=C(C(=O)CCC2)C(c2cccc([N+](=O)[O-])c2)N1 (stereo unspecified) | inactive
CCC(NS(=O)(=O)c1ccc(C)cc1)C(=O)N1CCOCCOCCOCC1 (stereo unspecified) | inactive
CCc1noc(C)c1C(=O)Nc1ccc(S(=O)(=O)N2CCCC(C)C2)cc1 (stereo unspecified) | inactive
COc1ccccc1-n1c(CNC(=O)c2ccc(S(=O)(=O)N3CCCCC3)cc2)n[nH]c1=S | inactive
COCC(=O)Nc1ccc2c(c1)OC[C@@H](C)N(CC1CC1)C[C@@H](C)[C@@H](OC)CN(C)C2=O | inactive
Clc1cccc(-c2nn3c(Cn4cnc5ccccc54)nnc3s2)c1 | inactive
CCN(C(=O)COC(=O)c1oc2ccccc2c1C)c1c(N)n(Cc2ccccc2)c(=O)[nH]c1=O | inactive
Oc1c(CN2CCCCC2)ccc2cccnc12 | inactive
O=C(NCC(=O)N1CC=C(c2ccccc2)CC1)c1ccccc1Br | inactive
Oc1ccc(/C=N/n2c(-c3ccccc3)n[nH]c2=S)cc1Br | inactive
COc1ccc(S(=O)(=O)Nc2ccc(O)c(Sc3ncn[nH]3)c2)cc1 | inactive
CO[C@@H]1CN(C)C(=O)c2ccc(NC(=O)C3CC3)cc2OC[C@H](C)N(Cc2ccccc2)C[C@@H]1C | inactive
Cc1ccc(Nc2ncnc3sccc23)c(C)c1 | inactive
O=C(CNC(=O)Cc1ccccc1)NCc1cccs1 | inactive
COc1ccc2cc(C(c3nnnn3C3CCCC3)N3CCc4ccccc4C3)c(=O)[nH]c2c1 (stereo unspecified) | inactive
Cc1nc2ccccc2n1CCOc1ccccc1 | inactive
CCC(=O)Nc1ccc2c(c1)OC[C@H](C)N(C(=O)C1CC1)C[C@@H](C)[C@@H](OC)CN(C)C2=O | inactive
Cc1onc(NC(=O)NC(=O)c2c(F)cccc2Cl)c1Br | inactive
O=C(Nc1ccc(NC(=O)C2CC2)cc1)c1cccs1 | inactive
O=C(Oc1ccc(Nc2ncnc3ccccc23)cc1)c1cccnc1 | inactive

Structure (SMILES) | activity change, negative = inhibition
Nc1ccc(Sc2ccccc2Cl)nc1 | inactive
Cc1noc(C)c1COc1ccccc1C(=O)N(C)CC(=O)Nc1ccc(F)c(F)c1F | inactive
O=C(CNC(=O)c1ccccc1F)N/N=C/c1ccc2c(c1)OCO2 | inactive
CCOCCCNC(=O)C1c2ccccc2Oc2ccccc21 | inactive
O=C(O)c1cccc(S(=O)(=O)NNc2ccccc2C(F)(F)F)c1 | inactive
CN1CCN(c2ccc(CNC(=O)C3Cc4c(-c5ccc6c(c5)OCO6)ccnc4O3)cc2)CC1 (stereo unspecified) | inactive
COc1ccccc1C(=O)Nc1ccc2c(c1)OC[C@@H](C)N(CC1CC1)C[C@@H](C)[C@@H](OC)CN(C)C2=O | inactive
CN(CC(=O)Nc1ccccc1Cl)C(=O)COC(=O)c1cccs1 | inactive
CCC(=O)Nc1ccc2c(c1)OC[C@@H](C)N(C(=O)CC)C[C@H](C)[C@@H](OC)CN(C)C2=O | inactive
CCOc1ccc(NC(=O)CN(C)C(=O)c2cc(C)nc3ccccc23)cc1OCC | inactive
O=C(CCCn1c(=S)[nH]c2cc3c(cc2c1=O)OCO3)N1CCN(C2CCCCC2)CC1 | inactive
O=C(N/N=C/c1cccc(O)c1)c1ccccc1O | inactive
COc1cc(/C=C2\SC(=O)NC2=O)ccc1Oc1ccc([N+](=O)[O-])cc1[N+](=O)[O-] | inactive
O=C(CCCCCn1c(=S)[nH]c2cc3c(cc2c1=O)OCO3)N1CCN(c2ccc(F)cc2)CC1 | inactive
COc1ccc(CN=C(N)N=C(N)N)cc1Cl | inactive
CC(C)(C)c1ccc(C(=O)Nc2ccc(S(=O)(=O)Nc3cnc4ccccc4n3)cc2)cc1 | inactive
COc1ccccc1CN(C)C(=O)CN1CCN(CC(=O)Nc2ccccc2Cl)CC1 | inactive
CCN(CC)CCN(CC)Cc1ccccc1Br | inactive
Cc1c(Cl)cccc1NC(=O)Nc1cc(C(C)(C)C)on1 | inactive
Cc1ccc(NC(=O)C(c2ccccc2)N2CCN(CC(=O)N3CCOCC3)CC2)cc1Cl (stereo unspecified) | inactive
CCC(=O)Nc1ccc2c(c1)OC[C@@H](C)N(Cc1ccccc1)C[C@@H](C)[C@@H](OC)CN(C)C2=O | inactive
O=C(N/N=C/c1cccnc1)c1cc(O)c(O)c(O)c1 | inactive

Structure (SMILES) | activity change, negative = inhibition
O=C(Nc1cc(Cl)cc(Cl)c1)c1coc(=O)c(Br)c1 | inactive
O=C(NC(=C(Cl)Cl)S(=O)(=O)c1ccc(Cl)cc1)c1ccccc1 | inactive
COCCNc1nc(-c2ccc(OC)cc2)c(-c2ccc(OC)cc2)s1 | inactive
COc1ccccc1C(=O)Nc1ccc2c(c1)OC[C@H](C)N(CC1CC1)C[C@@H](C)[C@H](OC)CN(C)C2=O | inactive
CC(C)N=C(Nc1cccnc1)c1ccccc1 | inactive
O=C1C2C3C=CC(CC3)C2C(=O)N1c1nccs1 (stereo unspecified) | inactive
CC(C)NC(=O)N1[C@H](CO)[C@@H](c2ccccc2)C12CN(C(=O)Cc1cccnc1)C2 | inactive
CSCCC(NS(=O)(=O)c1ccccc1F)C(=O)NCC(C)(C)N1CCOCC1 (stereo unspecified) | inactive
CC(C)CNC(=O)c1cccc2c(-c3ccc(F)c(F)c3)coc12 | inactive
CCCN1C[C@@H](C)[C@@H](OC)CN(C)C(=O)c2ccc(NC(=O)c3ccccc3)cc2OC[C@H]1C | inactive
O=C(COC(=O)c1ccc([N+](=O)[O-])s1)NC(=O)NCc1ccccc1 | inactive
Cc1ccccc1NC(=O)C1CCCN(S(=O)(=O)c2cnc[nH]2)C1 (stereo unspecified) | inactive
Cc1cc(N2CCCC2)ccc1NC(=O)CN1C(=O)NC2(CCCCC2)C1=O | inactive
O=C(NC1CCCCC1)N[C@H]1C=C[C@@H](CC(=O)N2CCOCC2)O[C@@H]1CO | inactive
CC(=O)N1CCc2c(sc(NC(=O)C3CCCCC3)c2C(N)=O)C1 | inactive
Cc1cc(NC(=O)C23CC4CC(C2)CC(n2cnc([N+](=O)[O-])n2)(C4)C3)no1 | inactive
CC1CC(C)CN(S(=O)(=O)c2ccc(F)c(C(=O)NC3CCCCC3C)c2)C1 (stereo unspecified) | inactive
Fc1cccc(Nc2nc(-c3ccncc3)nc3ccccc23)c1 | inactive
COc1cc(OC)c(OC)cc1CN1CCSCC1 | inactive
CCCN1C[C@H](C)[C@H](OC)CN(C)C(=O)c2ccc(NC(=O)c3ccccc3)cc2OC[C@H]1C | inactive
O=C(O)c1ccc2nnn(O)c2c1 | inactive
COC(=O)[C@@H]1[C@@H](CO)[C@@H]2Cn3c(cccc3=O)[C@@H]2N1CC1CCOCC1 | inactive

Structure (SMILES) | activity change, negative = inhibition
CCC(=O)Nc1ccc2c(c1)OC[C@H](C)N(C(=O)C1CC1)C[C@H](C)[C@@H](OC)CN(C)C2=O | inactive
Cc1ccccc1OC1(C)CCN(Cc2ccc(-c3ccccn3)cc2)C1 (stereo unspecified) | inactive
O=C([C@H]1[C@H](CO)[C@H]2Cn3c(cccc3=O)[C@H]2N1Cc1ccccn1)N1CCC(Cc2ccccc2)CC1 | inactive
COc1cc(OC)c(-c2nn3c(C4CCCCC4)nnc3s2)cc1OC | inactive
CCc1ccc(NS(=O)(=O)c2cc(OC)ccc2OC)cc1 | inactive
O=C(Nc1ccc2c(c1)OCCO2)C1CCCC1 | inactive
CO[C@H]1CN(C)C(=O)c2ccc(NC(=O)C3CC3)cc2OC[C@@H](C)N(CC2CCOCC2)C[C@@H]1C | inactive
CO[C@@H]1CN(C)C(=O)c2ccc(NC(=O)C3CC3)cc2OC[C@H](C)N(Cc2cccc(F)c2)C[C@H]1C | inactive
CCCc1cc(-c2n[nH]c(C(=O)OCC)c2-c2cscn2)c(O)cc1O | inactive
O=C(CCN1C(=O)NC2(CCCC2)C1=O)Nc1cccc(S(=O)(=O)N2CCOCC2)c1 | inactive
CC(C)c1ccc(C(=O)N2CCCC(c3cc(C(=O)Nc4ccccc4Cl)no3)C2)cc1 (stereo unspecified) | inactive
CC(C)(O)c1cn([C@@H]2C[C@@H]3O[C@@H](CO)CC[C@@H]3O[C@@H]2CCc2ccc(-c3ccncc3)cc2)nn1 | inactive
O=C(Nc1cccc(-c2ccccc2)c1)N1CCN(C(=O)Nc2cccc(-c3ccccc3)c2)CC1 | inactive
CO[C@H]1CN(C)C(=O)c2ccc(NC(C)=O)cc2OC[C@H](C)N(C(=O)CC2CC2)C[C@H]1C | inactive
CC1CCc2[nH]c3ccc(C(=O)O)cc3c2C1 (stereo unspecified) | inactive
COc1ccccc1S(=O)(=O)N[C@@H]1C=C[C@@H](CC(=O)N2CCOCC2)O[C@H]1CO | inactive
O=C(CCCCCn1c(=S)[nH]c2cc3c(cc2c1=O)OCO3)N1CCN(C2CCCCC2)CC1 | inactive
CCCCn1c(N)c(N(CCC(C)C)C(=O)COC(=O)c2ccc([N+](=O)[O-])s2)c(=O)[nH]c1=O | inactive
O=C(N/N=C/c1oc(O)c2ccccc12)c1ccccc1O | inactive
O=[N+]([O-])c1ccc2nc(-c3ccccc3[N+](=O)[O-])[nH]c2c1 | inactive
